According to patent publication US9745266B2 (THE REGENTS OF THE UNIVERSITY OF COLORADO, A BODY CORPORATE, priority 2013, dated 2017):
In brackets after ≈: the same amount, converted by molar mass. Read-outs that look alike come from different tables or passages of the source.

Key:
MRSA ATCC BAA-44 [1] = experiment: MIC, CLSI broth microdilution; type: cell-based, S. aureus; details: MRSA ATCC BAA-44, compound alone
MRSA ATCC 33592 [2] = experiment: MIC, broth microdilution; type: cell-based, S. aureus; details: Staphylococcus aureus
Protocol: (§1) Activities listed in the table show the ability of the compounds of the invention to resensitize MRSA to a collection of β-lactam antibiotics. For these activity tests, AMOXICILLIN® was used in combination with clavulanic acid (a.k.a., AUGMENTIN®), CEFAZOLIN®, and MEROPENEM® (an ultra-broad-spectrum carbapenem). […] To assess activity of each analog as a resistance-modifying agent (RMA), a modified broth microdilution assay was used. Briefly, this involves incubating MRSA with 2-fold serial dilutions of a compound in the presence of each individual antibiotic at its Clinical Laboratory Standards Institutes (CLSI)-defined sensitive concentration. For AMOXICILLIN®/clavulanic acid, this concentration is 4/2 μg/ml (8-fold potentiation), for CEFAZOLIN®, 8 μg/ml (16-fold potentiation) and for MEROPENEM®, 4 μg/ml (4-fold potentiation). Following overnight incubation, plates were examined for bacterial growth, or lack thereof. Compounds were tested at concentrations ranging from 0.5-32 μg/ml. […] The half growth inhibitory concentration (GI50) of each analog was determined by fitting the data using KaleidaGraph (v4.1.1, Synergy Software). Compounds 1a-1 are synthesized as shown in Scheme 1 below.
The minimal inhibitory concentrations (MICs) of active Of1 analogs were determined by the broth microdilution method detailed in the Clinical and Laboratory Standards Institute handbook. […]

MRSA ATCC BAA-44 [3] = experiment: MIC in the presence of 20 μM Of1 / alkaloid; type: cell-based, S. aureus; details: for fold of potentiation: MIC / MIC (+20 μM Of1); for MIC (+Of1): in the presence of 20 μM Of1
Protocol: (§2) Indoline alkaloid compounds were then screened for the ability to potentiate the activity of methicillin against MRSA. A multi-drug resistant MRSA strain (ATCC: BAA-44) was selected for the initial screening. […] To each well, 20 μM of each individual indoline alkaloid was added and the plates were incubated at 37° C. for 16 hrs.
(§3) The MRSA strain ATCC BAA-44 and the methicillin-sensitive S. aureus (MSSA) strain ATCC 25923 were used to determine the MIC values of various antimicrobial compounds in the presence of 20 μM Of1. The experiment was conducted similarly to the CLSI MIC determination described previously; however, MHB was supplemented with 40 μM Of1 prior to set up and inoculation. The final concentration of Of1 after inoculation with BAA-44 was 20 μM.

[4] = system: ATCC 700789 (vancomycin intermediate resistant S. aureus, VISA); experiment: Minimum resensitizing concentration (MRC); type: cell-based
Protocol: (§4) A modified broth microdilution assay was employed by incubating MRSA (ATCC: BAA-44) with Of1 in 2-fold series dilution in the presence of individual antibiotics at the highest sensitive concentration at 37° C. overnight. […] This is probably due to both the different sensitive concentration defined for each antibiotic and the different level of resistance of MRSA to various antibiotics. The MRC values were also determined for another three MRSA strains. The strain 33592 (ATCC) behaves similarly to BAA-44, and their MRCs for the three antibiotics tested are all 4 μg/mL. […] ATCC 700789 is particularly interesting, because it is also known as a vancomycin intermediate resistant S. aureus (VISA). […] Furthermore, the mammalian toxicity of Of1 was evaluated using human liver hepatocellular carcinoma HepG2 cell line in CellTiter Glo™ mammalian viability assay (Promega).

HepG2 cells = experiment: Mammalian toxicity, CellTiter Glo viability assay; type: cell-based, human; details: at 4 μg/mL
Protocol: as §4

[5] = Mammalian toxicity, CellTiter Glo viability assay; type: cell-based, human; details: human, HepG2 cells
Protocol: as §4

MRSA ATCC BAA-44 [6] = experiment: Minimum resensitizing concentration (MRC), modified broth microdilution; type: cell-based, S. aureus
Protocol: as §1, with “For” for “Activities listed in the table show the ability of the compounds of the invention to resensitize MRSA to a collection of β-lactam antibiotics. For”, “Software).” for “Software). Compounds 1a-1 are synthesized as shown in Scheme 1 below.”
(§5) A modified broth microdilution assay was employed by incubating MRSA (ATCC: BAA-44) with Of1 in 2-fold series dilution in the presence of individual antibiotics at the highest sensitive concentration at 37° C. overnight. […] The MRC values were also determined for another three MRSA strains. […] Furthermore, the mammalian toxicity of Of1 was evaluated using human liver hepatocellular carcinoma HepG2 cell line in CellTiter Glo™ mammalian viability assay (Promega).
(§6) MRC screens were performed as follows: antibiotic MIC values where S. aureus is considered susceptible were determined from the CLSI handbook supplement. Analogs of Of1 were diluted to 5 mg/ml in DMSO. Antibiotic was prepared at twice the intended final concentration in Mueller Hinton Broth (MHB). For amoxicillin/clavulanic acid, the initial concentration was 8/4 μg/ml, for meropenem 8 μg/ml and for cefazolin 16 μg/ml. 50 μl of the antibiotic containing media was added to each well of 96 well plates and 100 μl was added to the top row. 1.28 μl of 5 mg/ml alkaloid solution was added to the top row of each plate to afford a concentration of 64 μg/ml in the top row of each plate and two fold serial dilutions were performed down the columns. Once the plates were prepared, a day culture of MRSA was diluted to OD600 0.002 and 50 μl was added to each well. The final concentration of MRSA was OD600 0.001, the final concentration of amoxicillin/clavulanic acid was 4/2 μg/ml, the final concentration of meropenem was 4 μg/ml the final concentration of cefazolin was 8 μg/ml, and the highest concentration of Of1 analog tested was 32 μg/ml. Plates were incubated overnight at 37° C. with shaking. The MRC value was determined as the concentration of Of1 analog in the presence of antibiotic at which there was no observable overnight growth.

MRSA ATCC 33592 [7] = experiment: as above; type: cell-based, S. aureus
Protocol: as §1, with “For” for “Activities listed in the table show the ability of the compounds of the invention to resensitize MRSA to a collection of β-lactam antibiotics. For”, “Software).” for “Software). Compounds 1a-1 are synthesized as shown in Scheme 1 below.”
as §5, §6

[8] = system: MSSA strain (ATCC: 25923); experiment: Potentiation of β-lactam antibiotics by 20 μM Of1 in MSSA; type: cell-based, S. aureus; details: MSSA ATCC 25923
Protocol: Taken together, it appears that Of1 is a resistance-modifying agent specifically for β-lactam antibiotics.
as §3

MRSA ATCC BAA-1683 = experiment: Minimum resensitizing concentration (MRC); type: cell-based, S. aureus
Protocol: as §4

[9] = system: methicillin-sensitive S. aureus (MSSA, ATCC: 25923); experiment: MIC, CLSI broth microdilution; type: cell-based; details: Staphylococcus aureus; MSSA ATCC 25923, compound alone
Protocol: as §2
All antimicrobial compounds were purchased from Sigma-Aldrich. The growth media used for all MIC experiments was Mueller Hinton Broth (MHB) purchased from HIMEDIA through VWR (cat: 95039-356). The inoculum was prepared by diluting a bacterial day culture (OD600 0.15-0.4) to OD600 0.002. This dilution was further diluted two fold when added to 96 well microplates (USA Scientific CytoOne 96-well TC plate, cat: CC7682-7596) for a final inoculum concentration of OD600 0.001. All plates were incubated at 37° C. with shaking for 18 hours (overnight) before results were interpreted.

HeLa cells = experiment: Mammalian cytotoxicity, CellTiter-Glo viability assay; type: cell-based, human; details: 24 hours
Protocol: To evaluate the cytotoxicity of Of1 in mammalian cells, a cell viability assay was carried out using CellTiter-Glo luminescent cell viability assay kit (Promega). Human cervixcal adenocarcinoma HeLa cells were seeded on white, cell-culture treated 96-well plates (Corning: 3917) with Dulbecco's modified Eagle's medium (DMEM) supplemented with 10% fetal calf serum (FCS), 1% penicillin/streptomycin, at the densities of 20,000 cells/well. The medium volume for each well was 100 μL. Cells were incubated at 37° C. in 5% CO2/95% air for 16 hours. The medium was removed from each well and replaced with 99 μL of warmed fresh medium. To each well, 1 μL of Of1 analog was added in DMSO to final concentrations of 0.5-32 μg/mL. Each series was performed in triplicate. After incubation at 37° C. for another 24 hours, the plates were equilibrated to room temperature for 30 minutes. 100 μL of CellTiter-Glo reagent (Promega) was added to each well and mixed for 2 minutes on an orbital shaker. The plate was incubated at room temperature for another 10 minutes to stabilize luminescent signal. The luminescence of each sample was recorded in an Envision Multilabel Plate Reader (Perkin Elmer).

[10] = Staphylococcus aureus, read-out: MIC

C[C@@H](O)[C@H]1C(=O)N2C(C(=O)O)=C(S[C@@H]3CN[C@H](C(=O)N(C)C)C3)[C@H](C)[C@H]12 [meropenem]
MIC (MRSA ATCC BAA-44 [1]; [10]): 4 mg/L (≈ 10.4 µM) | MIC (MRSA ATCC 33592 [2]): 16 mg/L | fold of potentiation (MRSA ATCC BAA-44 [3]; MRSA ATCC BAA-44): 16 | MIC (+Of1) (MRSA ATCC BAA-44 [3]; MRSA ATCC BAA-44): 0.25 mg/L

C=C1CCC[C@@H]2Nc3ccc(Br)cc3[C@]12CCNS(=O)(=O)c1ccc(Cl)cc1 (stereo in doubt) [Of1, N-(2-(6-Bromo-4-methylene-2,3,4,4a,9,9a-hexahydro-1H-carbazol-4a-yl)ethyl)-4-chlorobenzenesulfonamide]
MIC (MRSA ATCC BAA-44 [1]): > 128 mg/L | MIC (MRSA ATCC BAA-44 [1]; [10]): > 128 mg/L | MRC of Of1, oxacillin ([4]; ATCC 700789): >64 µg/mL | MRC of Of1, amoxicillin/clavulanate ([4]; ATCC 700789 (VISA)): 4 µg/mL | cytotoxic effect against HepG2 cells (HepG2 cells): no observable cytotoxic effect | GI50 [5]: ~8.9 mg/L (≈ 18.5 µM) | MRC of Of1, oxacillin (MRSA ATCC BAA-44 [6]; ATCC BAA-44, oxacillin at highest sensitive concentration): 2 µg/mL | MRC of Of1, amoxicillin/clavulanate (MRSA ATCC 33592 [7]; ATCC 33592): 4 µg/mL | MRC of Of1, cefazolin (MRSA ATCC 33592 [7]; ATCC 33592): 4 µg/mL | MRC of Of1, oxacillin (MRSA ATCC 33592 [7]; ATCC 33592, oxacillin at highest sensitive concentration): 4 µg/mL | potentiation of β-lactam antibiotics in MSSA [8]: does not show any significant potentiation effect | MRC of Of1, amoxicillin/clavulanate (MRSA ATCC BAA-1683): 4 µg/mL | MRC of Of1, oxacillin (MRSA ATCC BAA-1683; 32 μg/mL highest concentration tested): >32 µg/mL | fold potentiation of methicillin (MRSA ATCC BAA-44 [3]; 20 μM (ca. 10 μg/mL) Of1, MRSA BAA-44): 16 fold | fold potentiation of all β-lactam antibiotics (MRSA ATCC BAA-44 [3]; 20 μM Of1, MRSA BAA-44): 8-128 fold | fold potentiation of meropenem (MRSA ATCC BAA-44 [3]; 20 μM Of1, MRSA BAA-44): 16 fold | MIC of methicillin in media supplemented with 20 μM alkaloid (MRSA ATCC BAA-44 [3]; MRSA ATCC BAA-44, methicillin MIC alone 128): 8 mg/L | MIC [9]: > 128 mg/L | GI50 (HeLa cells): 17.1 mg/L (≈ 35.5 µM)

Cc1onc(-c2ccccc2)c1C(=O)N[C@@H]1C(=O)N2[C@@H]1SC(C)(C)[C@@H]2C(=O)O [oxacillin]
MIC (MRSA ATCC BAA-44 [1]; [10]): 64 mg/L (≈ 159 µM) | MIC (+Of1) (MRSA ATCC BAA-44 [3]; MRSA ATCC BAA-44): 0.5 mg/L

C[C@@H](O)[C@H]1C(=O)N2C(C(=O)O)=C(SCCN=CN)C[C@H]12 [imipenem]
MIC (MRSA ATCC BAA-44 [1]; [10]): 0.5 mg/L (≈ 1.67 µM) | fold of potentiation (MRSA ATCC BAA-44 [3]; MRSA ATCC BAA-44): 8 | MIC (+Of1) (MRSA ATCC BAA-44 [3]; MRSA ATCC BAA-44): .0625 mg/L

CC1=C(C(=O)O)N2C(=O)[C@@H](NC(=O)[C@H](N)c3ccccc3)[C@H]2SC1 [cephalexin]
MIC (MRSA ATCC BAA-44 [1]; [10]): 256 mg/L (≈ 737 µM) | fold of potentiation (MRSA ATCC BAA-44 [3]; MRSA ATCC BAA-44): 16 | MIC (+Of1) (MRSA ATCC BAA-44 [3]; MRSA ATCC BAA-44): 16 mg/L

C=C1CCC[C@@H]2Nc3c(F)cc(Br)cc3[C@]12CCN (stereo in doubt) [Cpd 11b, 2-(6-Bromo-8-fluoro-4-methylidene-2,3,4,4a,9,9a-hexahydro-1H-carbazol-4a-yl)ethan-1-amine]
GI50 (HeLa cells): 16.2 mg/L (≈ 49.8 µM)

COc1cccc(OC)c1C(=O)N[C@@H]1C(=O)N2[C@@H]1SC(C)(C)[C@@H]2C(=O)O [methicillin]
MIC (MRSA ATCC BAA-44 [1]; [10]): 128 mg/L (≈ 336 µM) | fold of potentiation (MRSA ATCC BAA-44 [3]; MRSA ATCC BAA-44): 16 | MIC (+Of1) (MRSA ATCC BAA-44 [3]; MRSA ATCC BAA-44): 8 mg/L

2-(6-Bromo-4-methylidene-2,3,4,4a,9,9a-hexahydro-1H-carbazol-4a-yl)-N-(4-chlorobenzenesulfonyl)-S-(4-chlorophenyl)ethane-1-sulfonamido [Cpd 1h]
MRC amox/clav (MRSA ATCC BAA-44 [6]; MRSA ATCC BAA-44, amoxicillin/clavulanic acid at 4/2 μg/ml): >32 µg/mL | MRC cefazolin (MRSA ATCC BAA-44 [6]; MRSA ATCC BAA-44, cefazolin at 8 μg/ml): >32 µg/mL | MRC methicillin (MRSA ATCC BAA-44 [6]; MRSA ATCC BAA-44, in presence of methicillin): >32 µg/mL | MRC meropenem (MRSA ATCC 33592 [7]; MRSA ATCC 33592, meropenem at 4 μg/ml): >32 µg/mL
